Patent US20200283384A1, “ANTIBACTERIAL COMPOUNDS AND METHODS OF USE THEREOF” (Wayne State University, priority 2016, published 2020)
Values after ≈ are worked out from the molar mass of the structure shown.

Tests used:
Assay type in all cases: cell-based, Staphylococcus aureus
[1] = system: S. aureus clinical isolates; assay: Synergistic effect with oxacillin (oxacillin MIC alone and in presence of SIC)
Procedure: The synergistic effect (interaction) of HN18 and HN34 with different antibiotics against S. aureus clinical isolates was studied. The oxacillin MIC values of 8 clinical isolates of Staphylococcus aureus were determined. The oxacillin MIC of the same isolates were also determined after they were exposed to SIC of HN18, HN34 (Table 5). […] Column 2 and 3 show the oxacillin MIC value of the same isolates in presence of SIC of HN18 and HN34 respectively.

[2] = system: Methicillin-resistant S. aureus strains; S. aureus (K1902); assay: MIC and SIC in 96 well microplates (plasmid curing study)
Procedure: Plasmid curing activity of HN18 and HN34 was evaluated. Methicillin-resistant S. aureus strains were sub-cultured on blood agar plates to obtain isolated colonies, incubated at 35° C. in a CO2 incubator. The fresh overnight bacterial inoculum was prepared by re-suspending a few isolated colonies in a tube containing 5 ml of saline. […] The sub-inhibitory concentration (SIC) is defined as the concentration before MIC (in a serial dilution method where antibiotic concentration decreases by half from each tube to the next one).
(§1) Plasmid curing activity of HN18 and HN34 was also evaluated in S. aureus (K1902) which is known to harbor a 5 kb plasmid with a chloramphenicol resistance gene. Along with the KSA reference strain, the plasmid curing activity was repeated for SA1 and SA2 strains which are MRSA (Table 4).

[3] = system: methicillin-resistant S. aureus clinical isolates (MRSA); S. aureus (K1902); assay: Plasmid curing at sub-inhibitory concentration
Procedure: Plasmid curing was performed per Trevors (Trevors, 1986 Plasmid curing in bacteria. FEMS Microbiology, 32: 149-157). In brief, the clinical isolate was grown in the presence of HN18 and HN34 at the specified concentration for 18 h at 35° C. and then plated on Muller Hinton agar (MHA) plates to obtain isolated colonies. The isolated colonies were then replica plated onto MHA and MHA plates containing antibiotics. […] The percentage curing efficiency was expressed as the number of colonies with cured phenotype per 100 colonies tested. For plasmid extraction, 5 ml of an overnight culture of S. aureus strain was centrifuged and cells were subjected to 1 ml lysostaphin (20 μg/ml) for 1 hour at 35° C. prior to DNA extraction. Extraction of DNA was carried using QIAprep Spin Miniprep Kit (Qiagen) per manufacturer's instruction. DNA profile analysis was carried out by electrophoresis on 1.5% agarose gel.
The methicillin-resistant S. aureus clinical isolates (MRSA) growing in the presence of sub-inhibitory concentrations of HN18 and HN34 were taken for the evaluation for the loss of plasmids as described above. A culture control without a curing agent was also maintained in the curing experiment to estimate the rate of spontaneous loss of plasmids under these conditions. HN18 and HN34 eliminated the plasmid mediated antibiotic resistance markers with varying curing efficiencies (Table 3). HN18 cured plasmids from SA1, SA2, SA7 and SA8 at frequency in the range of 13-100%. HN34 also cured plasmids from SA1, SA2, SA7 and SA8 strains with 30%-100% curing efficiency.
as §1

[4] = Table 4, KSA (S. aureus K1902), experiment I
[5] = Table 4, KSA (S. aureus K1902), experiment II
[6] = Table 4, isolate SA1, experiment II
[7] = Table 4, isolate SA2, experiment I
[8] = Table 4, isolate SA2, experiment II
[9] = Table 3, isolate SA1, at SIC, lack of growth in presence of M, Ox (4 μg/ml)
[10] = Table 3, isolate SA2, at SIC, lack of growth in presence of M, Ox (4 μg/ml)
[11] = Table 3, isolate SA3, at SIC, lack of growth in presence of M, Ox (4 μg/ml)
[12] = Table 3, isolate SA4, at SIC, lack of growth in presence of M, Ox (4 μg/ml)
[13] = Table 3, isolate SA5, at SIC, lack of growth in presence of M, Ox (4 μg/ml)
[14] = Table 3, isolate SA6, at SIC, lack of growth in presence of M, Ox (4 μg/ml)
[15] = Table 3, isolate SA7, at SIC, lack of growth in presence of M, Ox (4 μg/ml)
[16] = Table 3, isolate SA8, at SIC, lack of growth in presence of M, Ox (4 μg/ml)

## Cc1[nH]c2ccccc2c1C(c1ccc(F)c(F)c1)c1c(C)[nH]c2ccccc12 [HN34]
[1]; S. aureus clinical isolates, compound at SIC
  Synergistic activity in combination with oxacillin: did not show synergistic activity
[1]; isolate SA3, experiment I
  Oxacillin MIC in presence of SIC of the compound (1 μg/ml): >16 µg/mL
[1]; isolate SA3, experiment II
  Oxacillin MIC in presence of SIC of the compound (1 μg/ml): >16 µg/mL
[1]; isolate SA4, experiment I
  Oxacillin MIC in presence of SIC of the compound (1 μg/ml): >16 µg/mL
[1]; isolate SA4, experiment II
  Oxacillin MIC in presence of SIC of the compound (1 μg/ml): >16 µg/mL
[1]; isolate SA5, experiment I
  Oxacillin MIC in presence of SIC of the compound (1 μg/ml): 16 µg/mL
[1]; isolate SA5, experiment II
  Oxacillin MIC in presence of SIC of the compound (1 μg/ml): >16 µg/mL
[1]; isolate SA9, experiment I
  Oxacillin MIC in presence of SIC of the compound (1 μg/ml): >16 µg/mL
[1]; isolate SA9, experiment II
  Oxacillin MIC in presence of SIC of the compound (1 μg/ml): >16 µg/mL
[1]; isolate SA10, experiment I
  Oxacillin MIC in presence of SIC of the compound (1 μg/ml): 16 µg/mL
[1]; isolate SA10, experiment II
  Oxacillin MIC in presence of SIC of the compound (1 μg/ml): 16 µg/mL
[1]; isolate SA11, experiment I
  Oxacillin MIC in presence of SIC of the compound (1 μg/ml): 16 µg/mL
[1]; isolate SA11, experiment II
  Oxacillin MIC in presence of SIC of the compound (1 μg/ml): 8 µg/mL
[1]; isolate SA15, experiment I
  Oxacillin MIC in presence of SIC of the compound (1 μg/ml): 16 µg/mL
[1]; isolate SA15, experiment II
  Oxacillin MIC in presence of SIC of the compound (1 μg/ml): >16 µg/mL
[1]; isolate SA18, experiment I
  Oxacillin MIC in presence of SIC of the compound (1 μg/ml): >16 µg/mL
[1]; isolate SA18, experiment II
  Oxacillin MIC in presence of SIC of the compound (1 μg/ml): >16 µg/mL
[2]; Table 3, isolate SA1 (MRSA)
  SIC: 1 µg/mL
[2]; Table 3, isolate SA2 (MRSA)
  SIC: 1 µg/mL
[2]; Table 3, isolate SA3 (MRSA)
  SIC: 1 µg/mL
[2]; Table 3, isolate SA4 (MRSA)
  SIC: 1 µg/mL
[2]; Table 3, isolate SA5 (MRSA)
  SIC: 1 µg/mL
[2]; Table 3, isolate SA6 (MRSA)
  SIC: 0.5 µg/mL
[2]; Table 3, isolate SA7 (MRSA)
  SIC: 0.5 µg/mL
[2]; Table 3, isolate SA8 (MRSA)
  SIC: 1 µg/mL
[2]; [4]
  MIC: 2 µg/mL (≈ 5.18 µM)
  SIC: 1 µg/mL
[2]; [5]
  MIC: 2 µg/mL (≈ 5.18 µM)
  SIC: 1 µg/mL
[2]; Table 4, isolate SA1, experiment I
  SIC: 1 µg/mL
[2]; [6]
  MIC: 2 µg/mL (≈ 5.18 µM)
  SIC: 1 µg/mL
[2]; [7]
  MIC: 2 µg/mL (≈ 5.18 µM)
  SIC: 1 µg/mL
[2]; [8]
  MIC: 2 µg/mL (≈ 5.18 µM)
  SIC: 1 µg/mL
[3]; S. aureus K1902, FIG. 3
  Plasmid band in agarose gel of cured derivatives: absent
[3]; SA1 and SA2 to oxacillin, KSA to chloramphenicol
  Susceptibility of isolates after exposure to SIC: became susceptible
[3]; [9]
  Curing efficiency I: 100%
  Curing efficiency II: 100%
[3]; [10]
  Curing efficiency I: 100%
  Curing efficiency II: 70%
[3]; [11]
  Curing efficiency I: 0%
  Curing efficiency II: 0%
[3]; [12]
  Curing efficiency I: 100%
  Curing efficiency II: 0%
[3]; [13]
  Curing efficiency I: 0%
  Curing efficiency II: 0%
[3]; [14]
  Curing efficiency I: 0%
  Curing efficiency II: 0%
[3]; [15]
  Curing efficiency I: 50%
  Curing efficiency II: 30%
[3]; [16]
  Curing efficiency I: 40%
  Curing efficiency II: 63.33%
[3]; Table 4, KSA (S. aureus K1902), experiment I, lack of growth in presence of Cm (10 μg/ml)
  Curing efficiency (%): 33.3%
[3]; Table 4, KSA (S. aureus K1902), experiment II, lack of growth in presence of Cm (10 μg/ml)
  Curing efficiency (%): 50%
[3]; Table 4, isolate SA1, experiment I, lack of growth in presence of M, Ox (4 μg/ml)
  Curing efficiency (%): 100%
[3]; Table 4, isolate SA2, experiment I, lack of growth in presence of M, Ox (4 μg/ml)
  Curing efficiency (%): 96.6%
